Assay results from patent publication US11932654B2, “Nimbolide analogs as anti-cancer agents and preparation thereof” (priority 2018, dated 2024).

Legend:
[1] = test system: A549 lung adenocarcinoma cell line; test: In vitro anticancer activity, SRB assay, A549; assay type: cell-based; details: Homo sapiens, 48 h, NA = Not Active
Protocol: (§1) Cell culture: Human lung adenocarcinoma cell line (A549 cell line), pancreatic cancer cell line (Panc-1, Pan-02), prostate cancer cell line (DU145, PC3), Brest cancer cell line (MCF-7) was grown in DIEM (Dulbecco's modifications of eagle's medium with L-glutamine & 4.5 g/L glucose) supplemented with fetal bovine serum in a humidified atmosphere of a 5% CO2 at 37° C.
(§2) In vitro anticancer activity: Cells were harvested from exponential phase cultures by trypsinization, counted and plated in 96-well plate. Optimal seeding densities for different cell lines in each plate were 5000 cells per well. After 24 h cells were treated with \ the newly synthesized compound at a dose range of 0.1-100 μm final concentration. Thereafter, cells were allowed to grow for 48 h before determination of cell survival by the SRB assay. Then the cells were fixed with 10% cold trichloroacetic acid for 1 h at 4° C. After two washes with deionized water, fixed cells were stained with 50 μL of SRB solution (1% in acetic acid) for 30 min and subsequently washed twice with 1% acetic acid to remove unbound stain. The plates were left to dry at room temperature and bound stain was solubilized with 100 μL of 10 mM buffered Tris base for reading the […] at 540 nm.

[2] = test system: Panc-1 pancreatic cancer cell line; test: In vitro anticancer activity, SRB assay, Panc-1; assay type: cell-based; details: Homo sapiens, 48 h, NA = Not Active
Protocol: as §1, §2

p21 = test: Western blotting analysis on Panc-1 cell line, p21; assay type: cell-based; details: panc-1 cells, various concentrations, 24 h, Western blot
Protocol: (§3) Western blotting analysis of IM-1372-Kn-13 on Panc-1 cell line: The cells were lysed in RIPA buffer (50 mM-tris (PH-7.4), 150 Min-Nacl, 1%-NP-40, 0.1%-SDS, 0.5%-Sodium-deoxycholate, 1 mM EDTA, 5 mM NaF, 5 mM Na—O-vandate, 1 mM PMSF, Protease inhibitor cocktail. The lysates were cleared by centrifugation at […] and concentration of protein was estimated by bradford assay. For Western blot analysis, equivalent amount of protein was resolved in SDS-PAGE and then transferred to polyvinylidene difluoride ([…]) membrane. Ti avoid non specific binding of antibodies, the membranes were blocked using 3% BSA in TBS with 0.5% Tween (TBST) for 1 h at room temperature. The membranes were then incubated in primary antibody overnight at 4° C. After removing excess primary antibody bound to membranes, blots were incubated with secondary anti body. Then the signal emitted was captured using chemiluminescence substrate.

p27 = test: Western blotting analysis on Panc-1 cell line, p27; assay type: cell-based; details: panc-1 cells, various concentrations, 24 h, Western blot
Protocol: as §3

[3] = test system: DU-145 prostate cancer cell line; test: In vitro anticancer activity, SRB assay, DU-145; assay type: cell-based; details: Homo sapiens, 48 h, NA = Not Active
Protocol: as §1, §2

[4] = Acute toxicity test with histopathology
Protocol: Acute toxicity test: Safety tests begin with acute toxicity testing, where the animals are given a single dose of the test compound. The aim of the tests is to determine the range between the dose that causes no adverse effect and the dose that is life-threatening. […] Different doses (50, 25, 10, and 5 mg/kg body weight) of the test compound are given to the animals separately through IP injection. Post injection, the animals were monitored for the first 4 h and observed at every hourly interval for next 24 h. Further, animals were observed everyday for 14 days for any signs of toxic effects and behavior of animals. On day 14 all the surviving animals are sacrificed by a humane method and dissected to investigate signs of toxicity internally. […] If the drug is intended for the treatment of life-threatening diseases, toxicity is less of a concern than in a drug intended for use in healthy individuals.
Histopathological examination: For pathological studies, 5 μm sections of formalin-fixed, paraffin-embedded tissue were prepared and stained with haematoxylin and eosin. After haematoxylin-eosin (HE) staining, the slides were observed and the images were taken using optical microscope (Axioplan-II imaging). All slides were reviewed in a blinded fashion by a single pathologist and assessed for the presence of necrotic lesions (nodules) in the tumors and organs of different groups of mice.

[5] = test system: MCF-7 breast cancer cell line; test: In vitro anticancer activity, SRB assay, MCF-7; assay type: cell-based; details: Homo sapiens, MCF7, 48 h, NA = Not Active
Protocol: as §1, §2

[6] = test system: Pan-02 pancreatic cancer cell line; test: In vitro anticancer activity, SRB assay, Pan-02; assay type: cell-based; details: Pan02, 48 h
Protocol: as §1, §2

p53 = test: Western blotting analysis on Panc-1 cell line, p53; assay type: cell-based; details: panc-1 cells, various concentrations, 24 h, Western blot
Protocol: as §3

[7] = test system: Pan-02 cells xenograft tumors; test: Pancreatic cancer xenograft model, anti-tumor activity; assay type: in vivo, nude mice; details: for Tumor Volume: 5 doses in 12 days, Pan-02 xenograft, mean ± SE
Protocol: In vivo studies: Materials and methods: Animals and cell lines: Healthy 8-10 week old nude mice of either sex, weighing between 20 g and 25 g were used as experimental animals for tumor induction. All animals were maintained under standardized animal house conditions (12 h light and 12 h dark condition) at controlled temperature (22±1° C.) and relative humidity (60-70%) in institutional registered animal house that was approved by Committee for the Purpose of Control and Supervision of Experiments on Animals (CPCSEA). They were maintained with standard pellet diet and water ad libitum. The institutional animal ethics committee approved the experimental protocol. CPCSEA guidelines were adhered to during the maintenance of animals and experiments. Pancreatic cancer cell line (Pan-02) was obtained from American Type Culture Collection and was cultured in RPMI medium.
Establishment of Pancreatic cancer xenograft model: To establish tumor in mice, Pan-02 cells (7×10^6) were suspended in 1:1 RPMI medium mixed with matrigel and subcutaneously implanted on right flank of the each mice. The injection sites were examined daily for the appearance of tumors. On 10th day these animals were randomized and divided into 3 groups (6 mice in each group). Group I served as control group received 20% ethanol three times in a week. Test group animals in Group II and III received intratumoral injection of IM-1372-Kn-13 at 10 mg and 25 mg/kg body weight respectively three times in a week. All groups received 5 repeated doses in 12 days. Mice were weighed and tumor volumes were measured 3 times a week by Vernier caliper. Tumor volume in individual mice was calculated by the following formula. 0.5×L (W)^2, Where L is length, W is width of the tumor. The control group animals were euthanized when tumor volume is reached heavier to animal. One-week after completion of treatment period, the animals were sacrificed, and tumors were excised, fixed, and embedded in paraffin. At the end of treatment, blood samples were collected to perform clinical biochemistry.

COC(=O)C[C@H]1[C@]2(C)C3=C(C)[C@H](C4=CC5OC4C(C(=O)OC)=C5C(=O)OC)C[C@@H]3O[C@@H]2[C@@H]2OC(=O)[C@]3(C)C=CC(=O)[C@@]1(C)C23 (stereo partly shown) [A4]
IC50 [1]: 4.54 µM | IC50 [2]: 9.08 µM | expression of p21 protein (p21): reduced | expression of p27 protein (p27): reduced | IC50 [3]: 580 nM | organ histopathology ([4]; 25 mg/kg body weight): all organs including liver, kidney and spleen appeared normal | survival ([4]; 25 mg/kg, 10 mg/kg and 5 mg/kg): survived beyond the 24 h of observation | kidney histopathology ([4]; 50 mg/kg body weight): moderate capsular thickening and fibrosis in the renal capsules | liver histopathology ([4]; 50 mg/kg body weight): minor inflammation in the liver | adverse gastrointestinal effects ([4]; all the mice used in the experiment): no adverse gastrointestinal effects were observed | mortality ([4]; one mouse that received 50 mg/kg): died within 24 h | toxic effects in acute toxicity studies ([4]; up to 50 mg/kg): failed to show any toxic effects | IC50 [5]: 12.5 µM | IC50 [6]: 520 nM | expression of p53 protein (p53): reduced | Tumor Volume ([7]; 10 mg/kg intratumoral, nude mice): 181.306 ± 12.7 mm^3 | body weight and food intake ([7]; 10 mg/kg, 25 mg/kg body weight, intratumoral, nude mice): did not cause any loss in body weight and food intake | Tumor Volume ([7]; 25 mg/kg intratumoral, nude mice): 109.46 ± 7.1 mm^3 | average volume of tumors compared to vehicle-treated animals ([7]; 10 and 25 mg/kg intratumoral, p<0.0001): significantly decreased
